Where two headings read alike, the source gives them in different places.
Key:
CRBN-287 = CRBN-287 (Homo sapiens, UniProt Q96SW2); experiment: Cysteine probe labeling after IMiD pretreatment, PBMC lysates (Table 4); format: binding; parameters: endogenous in cells; host or cells: PBMC lysates; conditions: read-out: inhibition of cysteine probe labeling, CRBN-287
CRBN-318 = CRBN-318 (Homo sapiens, UniProt Q96SW2); experiment: as above; format: binding; parameters: endogenous in cells; host or cells: PBMC lysates; conditions: read-out: inhibition of cysteine probe labeling, CRBN-318
Sequence of CRBN-318 (Q96SW2 whole entry): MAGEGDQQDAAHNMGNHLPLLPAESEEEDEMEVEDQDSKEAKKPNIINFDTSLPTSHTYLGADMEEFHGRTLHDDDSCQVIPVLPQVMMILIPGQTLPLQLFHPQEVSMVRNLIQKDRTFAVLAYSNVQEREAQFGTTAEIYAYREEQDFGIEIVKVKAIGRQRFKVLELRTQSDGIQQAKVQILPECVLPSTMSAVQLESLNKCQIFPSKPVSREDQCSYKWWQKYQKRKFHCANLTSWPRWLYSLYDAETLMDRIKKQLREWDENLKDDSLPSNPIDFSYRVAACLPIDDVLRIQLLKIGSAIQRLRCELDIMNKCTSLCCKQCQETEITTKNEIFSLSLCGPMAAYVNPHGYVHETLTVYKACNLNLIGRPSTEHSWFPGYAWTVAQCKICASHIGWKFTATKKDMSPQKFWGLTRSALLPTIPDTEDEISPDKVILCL

Protein-B = experiment: as above; format: binding
Protein-A = conditions: PBMC lysates
Protein-C = experiment: Cysteine probe labeling after IMiD pretreatment, PBMC lysates (Table 4); format: binding

Sequence of CRBN-287 (Q96SW2 whole entry): as above

Structure (SMILES): O=C1CCC(N2Cc3c(OCc4ccc(CN5CCOCC5)cc4)cccc3C2=O)C(=O)N1 (stereo not drawn) [CC-220]
- inhibition at 2 µM (CRBN-287): 75%
- inhibition at 20 µM (CRBN-287): 77%
- inhibition at 50 µM (CRBN-287): 81%
- inhibition at 2 µM (CRBN-318): 70%
- inhibition at 20 µM (CRBN-318): 70%
- inhibition at 50 µM (CRBN-318): 72%
- inhibition of cysteine probe labeling, Protein-B (Protein-B; 2 μM): 23
- inhibition of cysteine probe labeling, Protein-B (Protein-B; 20 μM): 11
- inhibition of cysteine probe labeling, Protein-B (Protein-B; 50 μM): 17
- inhibition of cysteine probe labeling, Protein-A (Protein-A; 2 μM): 16
- inhibition of cysteine probe labeling, Protein-A (Protein-A; 20 μM): 19
- inhibition of cysteine probe labeling, Protein-A (Protein-A; 50 μM): 13
- inhibition of cysteine probe labeling, Protein-C (Protein-C; 2 μM): 0
- inhibition of cysteine probe labeling, Protein-C (Protein-C; 20 μM): 2
- inhibition of cysteine probe labeling, Protein-C (Protein-C; 50 μM): 0

Structure (SMILES): Nc1cccc2c1C(=O)N(C1CCC(=O)NC1=O)C2=O (stereo not drawn) [Pomalidomide]
- inhibition at 100 µM (CRBN-287): 70%
- inhibition at 500 µM (CRBN-287): 75%
- inhibition at 20 µM (CRBN-318): 59%
- inhibition of cysteine probe labeling, Protein-B (Protein-B; 20 μM): 0
- inhibition of cysteine probe labeling, Protein-B (Protein-B; 100 μM): 14
- inhibition of cysteine probe labeling, Protein-B (Protein-B; 500 μM): 0
- inhibition of cysteine probe labeling, Protein-A (Protein-A; 20 μM): 8
- inhibition of cysteine probe labeling, Protein-A (Protein-A; 100 μM): 10
- inhibition of cysteine probe labeling, Protein-A (Protein-A; 500 μM): 13
- inhibition of cysteine probe labeling, Protein-C (Protein-C; 20 μM): 10
- inhibition of cysteine probe labeling, Protein-C (Protein-C; 100 μM): 1
- inhibition of cysteine probe labeling, Protein-C (Protein-C; 500 μM): 10
